Read-outs that look alike come from different tables or passages of the source.
How the values were obtained:
[1] = molecular target: T1, human cannabinoid receptor type 2 (Homo sapiens, UniProt P34972); experiment: Human CB2 Radioligand Binding Assay; conditions: membranes from stably transfected CHO CB2 cells
T1 construct: expressed in transfected cells; membrane preparation
Method in brief: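 Filtration competition binding on membranes from CHO cells stably expressing human CB2, with [3H]CP-55,940 at its lot-specific Kd, in 50 mM Tris-HCl pH 7.4, EGTA, MgCl2, 5 mg/ml BSA, 1% DMSO; 90 min at 30° C. Compounds at 10 uM single point or dose-response; bound radioactivity by scintillation, 100 nM CP-55,940 as 100% efficacy.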

[2] = molecular target: T2, human cannabinoid receptor type 1 (Homo sapiens, UniProt P21554); experiment: Human CB1 Radioligand Binding Assay (basis of selectivity, CB2 vs. CB1); conditions: CB1: HEK 293 EBNA cells expressing human CB1; CB2: CHO CB2 membranes
T2 construct: purchased Perkin Elmer RBHCB1M; host or cells: HEK 293 EBNA cells
Experimental: 2. Human CB1 Radioligand Binding Assay
The incubation buffer was composed of 50 mM Tris-HCl pH 7.4, 2.5 mM EDTA, 5 mM MgCl2, 5.0 mg/ml fatty acid free BSA and the wash buffer was composed of 50 mM Tris-HCl pH 7.4, 2.5 mM EDTA, 5 mM MgCl2, 0.5 mg/ml fatty acid free BSA.

[3] = competition with [3H] CP-55,940, read-out: CB2 Ligand Binding Asssay EC50
[4] = CB2 Ligand Binding Asssay EC50, competition with [3H] CP-55,940

T2 sequence (P21554 whole entry): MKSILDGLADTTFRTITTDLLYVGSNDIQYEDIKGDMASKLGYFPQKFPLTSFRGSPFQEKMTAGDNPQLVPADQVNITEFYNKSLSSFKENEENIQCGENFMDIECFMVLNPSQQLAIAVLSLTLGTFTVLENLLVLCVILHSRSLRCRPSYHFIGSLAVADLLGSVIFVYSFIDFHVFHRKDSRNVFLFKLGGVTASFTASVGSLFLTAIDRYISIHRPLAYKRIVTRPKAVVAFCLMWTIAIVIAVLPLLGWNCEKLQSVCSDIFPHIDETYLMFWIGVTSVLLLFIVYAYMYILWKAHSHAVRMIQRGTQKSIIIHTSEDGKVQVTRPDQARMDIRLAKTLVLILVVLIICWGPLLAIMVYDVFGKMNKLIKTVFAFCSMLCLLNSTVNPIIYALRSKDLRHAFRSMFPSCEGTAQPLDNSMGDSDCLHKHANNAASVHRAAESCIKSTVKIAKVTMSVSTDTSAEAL
T1 sequence (P34972 whole entry): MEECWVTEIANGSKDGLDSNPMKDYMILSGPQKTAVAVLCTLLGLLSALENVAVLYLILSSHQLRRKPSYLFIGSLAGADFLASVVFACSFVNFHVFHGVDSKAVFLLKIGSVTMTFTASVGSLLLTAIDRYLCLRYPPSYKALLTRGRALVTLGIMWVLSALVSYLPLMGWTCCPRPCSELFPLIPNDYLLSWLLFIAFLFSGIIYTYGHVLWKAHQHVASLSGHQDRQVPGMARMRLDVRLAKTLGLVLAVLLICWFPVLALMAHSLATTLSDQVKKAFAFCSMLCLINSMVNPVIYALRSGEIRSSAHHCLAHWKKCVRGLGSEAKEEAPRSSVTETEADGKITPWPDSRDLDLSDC

Row | EC50 [1, 3] | Selectivity, CB2 vs. CB1 [2] | Structure (SMILES) | EC50 [1, 4]
1 | < 1000 nM | + (+ indicates > 10−fold) | CN1CCN(c2nc(-c3ccccc3F)nc3ccccc23)CC1 [Example 152, 2-(2-Fluorophenyl)-4-(4-methylpiperazin-1-yl)quinazoline] | –
2 | < 1000 nM | + (+ indicates > 10−fold) | CC(=O)N1CCN(c2nc(-c3ccccc3F)nc3ccccc23)CC1 [Example 153, 1-(4-(2-(2-Fluorophenyl)quinazolin-4-yl)piperazin-1-yl)ethanone] | –
3 | < 1000 nM | + (+ indicates > 10−fold) | CC(=O)N1CCN(c2nc(-c3cccc(F)c3)nc3ccccc23)CC1 [Example 154, 1-(4-(2-(3-Fluorophenyl)quinazolin-4-yl)piperazin-1-yl)ethanone] | –
4 | > 1000 nM | − (− indicates ≦ 10−fold) | Cc1ccccc1-c1nc(N2CCCC2)c2ccccc2n1 [Example 155, 4-Pyrrolidin-1-yl-2-o-tolylquinazoline] | –
5 | > 1000 nM | − (− indicates ≦ 10−fold) | Cc1ccccc1-c1nc(N2CCOCC2)c2ccccc2n1 [Example 156, 4-Morpholin-4-yl-2-o-tolylquinazoline] | –
6 | < 1000 nM | + (+ indicates > 10−fold) | Cc1ccccc1-c1nc(N2CCN(C)CC2)c2ccccc2n1 [Example 157, 4-(4-Methylpiperazin-1-yl)-2-o-tolylquinazoline] | –
7 | > 1000 nM | − (− indicates ≦ 10−fold) | COc1ccc2c(N3CCN(C)CC3)nc(C3CCCCC3)nc2c1 [Example 158, 2-Cyclohexyl-7-methoxy-4-(4-methylpiperazin-1-yl)quinazoline] | –
8 | > 1000 nM | + (+ indicates > 10−fold) | COc1ccc2c(N3CCCC3)nc(C3CCCCC3)nc2c1 [Example 159, 2-Cyclohexyl-7-methoxy-4-(pyrrolidin-1-yl)quinazoline] | –
9 | < 1000 nM | − (− indicates ≦ 10−fold) | Clc1ccc2c(N3CCCC3)nc(C3CCCCC3)nc2c1 [Example 160, 7-Chloro-2-cyclohexyl-4-(pyrrolidin-1-yl)quinazoline] | –
10 | < 1000 nM | − (− indicates ≦ 10−fold) | CN1CCN(c2nc(C3CCCCC3)nc3ccc(Cl)cc23)CC1 [Example 161, 6-Chloro-2-cyclohexyl-4-(4-methylpiperazin-1-yl)quinazoline] | –
11 | < 1000 nM | + (+ indicates > 10−fold) | COc1ccc2nc(C3CCCCC3)nc(N3CCCC3)c2c1 [Example 162, 2-Cyclohexyl-6-methoxy-4-(pyrrolidin-1-yl)quinazoline] | –
12 | < 1000 nM | − (− indicates ≦ 10−fold) | COc1ccc2nc(C3CCCCC3)nc(N3CCN(C)CC3)c2c1 [Example 163, 2-Cyclohexyl-6-methoxy-4-(4-methylpiperazin-1-yl)quinazoline] | –
13 | < 1000 nM | + (+ indicates > 10−fold) | Clc1ccc2c(N3CCCCC3)nc(C3CCCCC3)nc2c1 [Example 164, 7-Chloro-2-cyclohexyl-4-(piperidin-1-yl)quinazoline] | –
14 | < 1000 nM | + (+ indicates > 10−fold) | CN1CCN(c2nc(C3CCCCC3)nc3cc(Cl)ccc23)CC1 [Example 166, 7-Chloro-2-cyclohexyl-4-(4-methylpiperazin-1-yl)quinazoline] | –
15 | < 1000 nM | + (+ indicates > 10−fold) | Clc1ccc2nc(C3CCCCC3)nc(N3CCCC3)c2c1 [Example 167, 6-Chloro-2-cyclohexyl-4-(pyrrolidin-1-yl)quinazoline] | –
16 | < 1000 nM | + (+ indicates > 10−fold) | CN1CCN(c2nc(-c3ccccc3Cl)nc3ccc(C(C)(C)C)cc23)CC1 [Example 168, 6-tert-Butyl-2-(2-chlorophenyl)-4-(4-methylpiperazin-1-yl)quinazoline] | –
17 | < 1000 nM | + (+ indicates > 10−fold) | CC(C)(C)c1ccc2nc(-c3ccccc3Cl)nc(N3CCSCC3)c2c1 [Example 169, 4-(6-tert-Butyl-2-(2-chlorophenyl)quinazolin-4-yl)thiomorpholine] | –
18 | < 1000 nM | + (+ indicates > 10−fold) | CC(C)(C)c1ccc2nc(-c3ccccc3Cl)nc(N3CCCCC3)c2c1 [Example 170, 6-tert-Butyl-2-(2-chlorophenyl)-4-(piperidin-1-yl)quinazoline] | –

Row | EC50 [1, 3] | Selectivity, CB2 vs. CB1 [2] | Structure (SMILES) | EC50 [1, 4]
19 | < 1000 nM | + (+ indicates > 10−fold) | CC(C)(C)c1ccc2nc(-c3ccccc3Cl)nc(N3CCCC3)c2c1 [Example 171, 6-tert-Butyl-2-(2-chlorophenyl)-4-(pyrrolidin-1-yl)quinazoline] | –
20 | < 1000 nM | + (+ indicates > 10−fold) | COc1ccc2nc(-c3ccccc3Cl)nc(N3CCSCC3)c2c1 [Example 172, 4-(2-(2-Chlorophenyl)-6-methoxyquinazolin-4-yl)thiomorpholine] | –
21 | < 1000 nM | + (+ indicates > 10−fold) | CCc1ccc2nc(-c3ccccc3Cl)nc(N3CCN(C)CC3)c2c1 [Example 173, 2-(2-Chlorophenyl)-6-ethyl-4-(4-methylpiperazin-1-yl)quinazoline] | –
22 | < 1000 nM | + (+ indicates > 10−fold) | CCc1ccc2nc(-c3ccccc3Cl)nc(N3CCSCC3)c2c1 [Example 174, 4-(2-(2-Chlorophenyl)-6-ethylquinazolin-4-yl)thiomorpholine] | –
23 | < 1000 nM | − (− indicates ≦ 10−fold) | CCc1ccc2nc(-c3ccccc3Cl)nc(N3CCCCC3)c2c1 [Example 175, 2-(2-Chlorophenyl)-6-ethyl-4-(piperidin-1-yl)quinazoline] | –
24 | < 1000 nM | + (+ indicates > 10−fold) | CCc1ccc2nc(-c3ccccc3Cl)nc(N3CCCC3)c2c1 [Example 176, 2-(2-Chlorophenyl)-6-ethyl-4-(pyrrolidin-1-yl)quinazoline] | –
25 | < 1000 nM | − (− indicates ≦ 10−fold) | COc1ccc2nc(-c3ccccc3Cl)nc(N3CCN(C)CC3)c2c1 [Example 177, 2-(2-Chlorophenyl)-6-methoxy-4-(4-methylpiperazin-1-yl)quinazoline] | –
26 | < 1000 nM | − (− indicates ≦ 10−fold) | COc1ccc2nc(-c3ccccc3Cl)nc(N3CCCCC3)c2c1 [Example 178, 2-(2-Chlorophenyl)-6-methoxy-4-(piperidin-1-yl)quinazoline] | –
27 | < 1000 nM | + (+ indicates > 10−fold) | COc1ccc2nc(-c3ccccc3Cl)nc(N3CCCC3)c2c1 [Example 179, 2-(2-Chlorophenyl)-6-methoxy-4-(pyrrolidin-1-yl)quinazoline] | –
28 | < 1000 nM | − (− indicates ≦ 10−fold) | CN1CCN(c2nc(-c3ccccc3Cl)nc3ccc(OC(F)(F)F)cc23)CC1 [Example 180, 2-(2-Chlorophenyl)-4-(4-methylpiperazin-1-yl)-6-(trifluoromethoxy) quinazoline] | –
29 | > 1000 nM | − (− indicates ≦ 10−fold) | FC(F)(F)Oc1ccc2nc(-c3ccccc3Cl)nc(N3CCCCC3)c2c1 [Example 181, 2-(2-Chlorophenyl)-4-(piperidin-1-yl)-6-(trifluoromethoxy) quinazoline] | –
30 | < 1000 nM | − (− indicates ≦ 10−fold) | Clc1ccccc1-c1nc(N2CCCC2)c2cc(Br)ccc2n1 [Example 184, 6-Bromo-2-(2-chlorophenyl)-4-(pyrrolidin-1-yl)quinazoline] | –
31 | < 1000 nM | − (− indicates ≦ 10−fold) | CC(=O)N1CCN(c2nc(C3CCCCC3)nc3ccc(Cl)cc23)CC1 [Example 185, 1-(4-(6-Chloro-2-cyclohexylquinazolin-4-yl)piperazin-1-yl)ethanone] | –
32 | < 1000 nM | − (− indicates ≦ 10−fold) | COc1ccc2nc(C3CCCCC3)nc(N3CCN(C(C)=O)CC3)c2c1 [Example 186, 1-(4-(2-Cyclohexyl-6-methoxyquinazolin-4-yl)piperazin-1-yl)ethanone] | –
33 | > 1000 nM | − (− indicates ≦ 10−fold) | Cc1ccccc1-c1nc(N2CCCCC2)c2ccccc2n1 [Example 187, 4-Piperidin-1-yl-2-o-tolylquinazoline] | –
34 | > 1000 nM | − (− indicates ≦ 10−fold) | Clc1ccccc1-c1nc(NCC2CCCO2)c2ccccc2n1 (centres unmarked) [Example 188, 2-(2-Chlorophenyl)-N-((tertrahydrofuran-2-yl)methyl)quinzaoline-4-amine] | –
35 | > 1000 nM | − (− indicates ≦ 10−fold) | CC(C)(C)CCNc1nc(-c2ccccc2Cl)nc2ccccc12 [Example 189, 2-(2-Chlorophenyl)-N-(3,3-dimethylbutyl)quinazolin-4-amine] | –

Row | Structure (SMILES) | EC50 [1, 3] | Selectivity, CB2 vs. CB1 [2] | EC50 [1, 4]
36 | Clc1ccc2c(N3CCOCC3)nc(C3CCCCC3)nc2c1 [Example 165, 4-(7-Chloro-2-cyclohexylquinazolin-4-yl)morpholine] | – | + (+ indicates > 10−fold) | > 1000 nM
37 | FC(F)(F)Oc1ccc2nc(-c3ccccc3Cl)nc(N3CCCC3)c2c1 [Example 182, 2-(2-Chlorophenyl)-4-(pyrrolidin-1-yl)-6-(trifluoromethoxy) quinazoline] | – | − (− indicates ≦ 10−fold) | > 1000 nM

— patent publication US20090209536A1, “AMINOQUINAZOLINE CANNABINOID RECEPTOR MODULATORS FOR TREATMENT OF DISEASE” (KALYPSYS, INC., priority 2007, published 2009)
